# Test results: patent US8426437B2, “Pyrroloquinoline derivatives and their use as protein kinases inhibitors” (Pierre Fabre Medicament, priority 2005, dated 2013)
# Counter-ions that a name gives are not always drawn.
# Target: T1, RET (Homo sapiens, UniProt P07949)
# T1 construct: purchased Upstate 14-570MG
# Test: Inhibition of RET kinase activity, recombinant RET method (Kinase-Glo)
# Format: biochemical
# Conditions: RET 2 μg/ml, poly-EY4 substrate, 20 μM ATP, two hours at 30° C.
# Experimental: The inhibition of the kinase activity of the compounds of the invention is assessed by measuring their IC50 on RET.
# where: • Y is the value of the luminescence • X is the logarithm of the concentration of the compound • Bottom is the minimum Y value • Top is the maximum Y value • LogIC50 is the value of X when Y is 50% from Top—Bottom.
# The quantity of RET required is 2 μg/ml.
# The following buffer is used for dilution of RET: 20 mM MOPS/NaOH pH7.0, 1 mM EDTA, 5% glycerol, 0.01% Brij35 (Sigma B4184), 0.1% 2-mercaptoethanol, 1 mg/ml BSA (Sigma A3059-10G).
# The dilution of the compounds of the invention is distributed so as to obtain a scale of final concentrations between 10 nM and 30 μM.
# After incubation of the reaction mixture for two hours at 30° C., the level of ATP that remains is assayed using the Kinase-Glo Luminescent Kinase Assay (Promega #V6712) according to the conditions recommended by the supplier. The luminescence induced is read in a plate reader (Envision-Perkin Elmer).
# T1 sequence (P07949 29-1114): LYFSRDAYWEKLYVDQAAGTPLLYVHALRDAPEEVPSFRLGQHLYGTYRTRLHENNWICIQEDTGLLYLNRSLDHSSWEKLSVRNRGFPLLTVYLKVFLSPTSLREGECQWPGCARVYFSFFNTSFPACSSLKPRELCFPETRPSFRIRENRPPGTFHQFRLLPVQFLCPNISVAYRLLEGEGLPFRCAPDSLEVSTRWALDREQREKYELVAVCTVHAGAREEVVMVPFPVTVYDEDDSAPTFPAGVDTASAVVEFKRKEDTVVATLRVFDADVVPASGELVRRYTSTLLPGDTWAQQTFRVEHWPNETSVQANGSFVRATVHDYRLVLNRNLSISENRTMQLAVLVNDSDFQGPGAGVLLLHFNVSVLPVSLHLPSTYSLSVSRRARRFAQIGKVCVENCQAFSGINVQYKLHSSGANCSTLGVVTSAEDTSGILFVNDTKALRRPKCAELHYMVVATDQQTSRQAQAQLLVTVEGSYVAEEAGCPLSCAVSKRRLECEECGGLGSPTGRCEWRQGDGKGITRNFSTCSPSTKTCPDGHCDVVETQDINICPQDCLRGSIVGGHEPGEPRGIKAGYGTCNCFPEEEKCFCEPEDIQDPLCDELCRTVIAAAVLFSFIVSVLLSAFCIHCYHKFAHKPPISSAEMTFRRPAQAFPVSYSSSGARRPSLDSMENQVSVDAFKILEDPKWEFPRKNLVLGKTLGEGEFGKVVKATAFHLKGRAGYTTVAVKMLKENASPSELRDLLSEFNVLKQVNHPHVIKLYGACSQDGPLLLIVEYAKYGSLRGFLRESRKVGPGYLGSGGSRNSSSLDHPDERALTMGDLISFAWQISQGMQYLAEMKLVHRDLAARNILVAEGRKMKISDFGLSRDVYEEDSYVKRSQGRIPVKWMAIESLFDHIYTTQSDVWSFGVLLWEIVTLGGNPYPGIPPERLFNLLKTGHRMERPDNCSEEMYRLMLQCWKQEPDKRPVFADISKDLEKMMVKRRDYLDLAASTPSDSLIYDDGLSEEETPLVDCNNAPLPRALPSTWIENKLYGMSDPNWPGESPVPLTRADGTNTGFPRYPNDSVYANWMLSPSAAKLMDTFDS
row,SMILES,IC50
1,"O=C(NCc1ccncc1)c1c[nH]c2c(=O)[nH]c3ccccc3c12 [Compound 86, N-(Pyridin-4-ylmethyl)-4-oxo-4,5-dihydro-3H-pyrrolo[2,3-c]quinoline-1-carboxamide]",10 to 100 µM
2,"O=C(Nc1ccccc1)c1c[nH]c2c(=O)[nH]c3ccccc3c12 [Compound 87, N-(Phenyl)-4-oxo-4,5-dihydro-3H-pyrrolo[2,3-c]quinoline-1-carboxamide]",10 to 100 µM
3,"CNC(=O)c1c[nH]c2c(=O)[nH]c3ccccc3c12 [Compound 88, N-(Methyl)-4-oxo-4,5-dihydro-3H-pyrrolo[2,3-c]quinoline-1-carboxamide]",10 to 100 µM
4,"CN(C)C(=O)c1c[nH]c2c(=O)[nH]c3ccccc3c12 [Compound 89, N,N-(Dimethyl)-4-oxo-4,5-dihydro-3H-pyrrolo[2,3-c]quinoline-1-carboxamide]",10 to 100 µM
5,"NC(=O)c1c[nH]c2c(=O)[nH]c3ccccc3c12 [Compound 90, 4-Oxo-4,5-dihydro-3H-pyrrolo[2,3-c]quinoline-1-carboxamide]",10 to 100 µM
6,"COC(=O)c1c[nH]c2c(=O)[nH]c3ccc(S(=O)(=O)NC4CCCC4)cc3c12 [Compound 92, 8-Cyclopentylsulfamoyl-4-oxo-4,5-dihydro-3H-pyrrolo[2,3-c]quinoline-1-methyl carboxylate]",1 to 10 µM
7,"CCOC(=O)c1c[nH]c2c(=O)[nH]c3ccc(S(N)(=O)=O)cc3c12 [Compound 96, 4-Oxo-8-sulfamoyl-4,5-dihydro-3H-pyrrolo[2,3-c]quinoline-1-ethyl carboxylate]",0.1 to 1 µM
8,"CCOC(=O)c1c[nH]c2c(=O)[nH]c3ccc(S(=O)(=O)Nc4ccc(O)cc4)cc3c12 [Compound 98, 8-(4-Hydroxy-phenylsulfamoyl)-4-oxo-4,5-dihydro-3H-pyrrolo[2,3-c]quinoline-1-ethyl carboxylate]",< 0.1 µM
9,"CCOC(=O)c1c[nH]c2c(=O)[nH]c3ccc(F)cc3c12 [Compound 99, 8-Fluoro-4-oxo-4,5-dihydro-3H-pyrrolo[2,3-c]quinoline-1-ethyl carboxylate]",10 to 100 µM
10,"CCN(CC)CCOC(=O)c1c[nH]c2c(=O)[nH]c3ccc(F)cc3c12 [Compound 100, 8-Fluoro-4-oxo-4,5-dihydro-3H-pyrrolo[2,3-c]quinoline-1-carboxylate of 2-diethylaminoethyl]",10 to 100 µM
11,"CCOC(=O)c1c[nH]c2c(=O)[nH]c3ccc(C(C)=O)cc3c12 [Compound 101, 8-Acetyl-4-oxo-4,5-dihydro-3H-pyrrolo[2,3-c]quinoline-1-ethyl carboxylate]",1 to 10 µM
12,"CCOC(=O)c1c[nH]c2c(=O)[nH]c3ccc(C(=O)c4ccccc4)cc3c12 [Compound 102, 8-Benzoyl-4-oxo-4,5-dihydro-3H-pyrrolo[2,3-c]quinoline-1-ethyl carboxylate]",1 to 10 µM
13,"CN(c1ccc(F)cc1)S(=O)(=O)c1ccc2[nH]c(=O)c3[nH]cc(C(=O)O)c3c2c1 [Compound 103, 8-[(4-Fluorophenyl)-methyl-sulfamoyl]-4-oxo-4,5-dihydro-3H-pyrrolo[2,3-c]quinoline-1-carboxylic acid]",10 to 100 µM
14,"CN(c1ccc(F)cc1)S(=O)(=O)c1ccc2[nH]c(=O)c3[nH]cc(C(=O)OCCO)c3c2c1 [Compound 104, 8-[(4-Fluorophenyl)-methyl-sulfamoyl]-4-oxo-4,5-dihydro-3H-pyrrolo[2,3-c]quinoline-1-2-hydroxyethyl carboxylate]",1 to 10 µM
15,"CN(c1ccc(F)cc1)S(=O)(=O)c1ccc2[nH]c(=O)c3[nH]cc(C(=O)OCCN)c3c2c1 [Compound 105, 8-[(4-Fluorophenyl)-methyl-sulfamoyl]-4-oxo-4,5-dihydro-3H-pyrrolo[2,3-c]quinoline-1-2-aminoethyl trifluoroacetate carboxylate]",10 to 100 µM
16,"CN(c1ccc(F)cc1)S(=O)(=O)c1ccc2[nH]c(=O)c3[nH]cc(C(=O)OCCNC(=O)OC(C)(C)C)c3c2c1 [Compound 106, 2-tert-Butoxycarbonylaminoethyl 8-[(4-fluorophenyl)-methyl-sulfamoyl]-4-oxo-4,5-dihydro-3H-pyrrolo[2,3-c]quinoline-1-carboxylate]",10 to 100 µM
17,"CN(c1ccc(F)cc1)S(=O)(=O)c1ccc2[nH]c(=O)c3[nH]cc(C(=O)OCCCN)c3c2c1 [Compound 107, Trifluoroacetate of 8-[(4-fluorophenyl)-methyl-sulfamoyl]-4-oxo-4,5-dihydro-3H-pyrrolo[2,3-c]quinoline-1-3-aminopropyl carboxylate]",10 to 100 µM

row,SMILES,IC50
1,"CN(c1ccc(F)cc1)S(=O)(=O)c1ccc2[nH]c(=O)c3[nH]cc(C(=O)OCCCNC(=O)OC(C)(C)C)c3c2c1 [Compound 108, 3-tert-Butoxycarbonylamino-propyl 8-[(4-fluorophenyl)-methyl-sulfamoyl]-4-oxo-4,5-dihydro-3H-pyrrolo[2,3-c]quinoline-1-carboxylate]",10 to 100 µM
2,"CCCNC(=O)c1c[nH]c2c(=O)[nH]c3ccc(S(=O)(=O)N(C)C)cc3c12 [Compound 109, N-Propyl-8-dimethylsulfamoyl-4-oxo-4,5-dihydro-3H-pyrrolo[2,3-c]quinoline-1-carboxamide]",10 to 100 µM
3,"CCCN(C)C(=O)c1c[nH]c2c(=O)[nH]c3ccc(S(=O)(=O)N(C)C)cc3c12 [Compound 110, N-Methyl-N-propyl-8-dimethylsulfamoyl-4-oxo-4,5-dihydro-3H-pyrrolo[2,3-c]quinoline-1-carboxamide]",10 to 100 µM
4,"CN1CCC(NS(=O)(=O)c2ccc3[nH]c(=O)c4[nH]cc(C(=O)OC5CCCC5)c4c3c2)CC1 [Compound 119, 8-(q-Methyl-piperidin-4-ylsulfamoyl)-4-oxo-4,5-dihydro-3H-pyrrolo[2,3-c]quinoline-1-cyclopentyl carboxylate]",0.1 to 1 µM
5,"CCOC(=O)c1c[nH]c2c(=O)[nH]c3ccc(S(=O)(=O)NC4CC5CCC(C4)N5)cc3c12 (stereo not drawn) [Compound 122, 8-(8-Aza-bicyclo[3.2.1]oct-3-ylsulfamoyl)-4-oxo-4,5-dihydro-3H-pyrrolo[2,3-c]quinoline-1-ethyl carboxylate]",< 0.1 µM
6,"CCCOC(=O)c1c[nH]c2c(=O)[nH]c3ccc(S(=O)(=O)NC4CC4)cc3c12 [Compound 124, 8-Cyclopropylsulfamoyl-4-oxo-4,5-dihydro-3H-pyrrolo[2,3-c]quinoline-1-propyl carboxylate]",0.1 to 1 µM
7,"CCCOC(=O)c1c[nH]c2c(=O)[nH]c3ccc(S(=O)(=O)N(C)C4CC4)cc3c12 [Compound 125, 8-(Cyclopropyl-methyl-sulfamoyl)-4-oxo-4,5-dihydro-3H-pyrrolo[2,3-c]quinoline-1-propyl carboxylate]",< 0.1 µM
8,"CCCOC(=O)c1c[nH]c2c(=O)[nH]c3ccc(S(=O)(=O)N(C)CCC#N)cc3c12 [Compound 126, 8-[(2-Cyano-ethyl)-methyl-sulfamoyl]-4-oxo-4,5-dihydro-3H-pyrrolo[2,3-c]quinoline-1-propyl carboxylate]",0.1 to 1 µM
9,"CCCOC(=O)c1c[nH]c2c(=O)[nH]c3ccc(S(=O)(=O)N(C)CC#N)cc3c12 [Compound 128, 8-(Cyanomethyl-methyl-sulfamoyl)-4-oxo-4,5-dihydro-3H-pyrrolo[2,3-c]quinoline-1-propyl carboxylate]",0.1 to 1 µM
10,"CCCOC(=O)c1c[nH]c2c(=O)[nH]c3ccc(S(=O)(=O)N(C)CC4OCCO4)cc3c12 [Compound 129, 8-[1,3]Dioxolan-2-ylmethyl-methyl-sulfamoyl)-4-oxo-4,5-dihydro-3H-pyrrolo[2,3-c]quinoline-1-propyl carboxylate]",0.1 to 1 µM
11,"CCCOC(=O)c1c[nH]c2c(=O)[nH]c3ccc(S(=O)(=O)N(C)C4CCSCC4)cc3c12 [Compound 131, 8-[Methyl-(tetrahydro-thiopyran-4-yl)-sulfamoyl]-4-oxo-4,5-dihydro-3H-pyrrolo[2,3-c]quinoline-1-propyl carboxylate]",0.1 to 1 µM
12,"CCCOC(=O)c1c[nH]c2c(=O)[nH]c3ccc(S(=O)(=O)N(C)C4CCS(=O)(=O)CC4)cc3c12 [Compound 132, 8-[(1,1-Dioxo-hexahydro-1,6-thiopyran-4-yl)-methyl-sulfamoyl]-4-oxo-4,5-dihydro-3H-pyrrolo[2,3-c]quinoline-1-propyl carboxylate]",1 to 10 µM
13,"CCCOC(=O)c1c[nH]c2c(=O)[nH]c3ccc(S(=O)(=O)N(C)C4CCOCC4)cc3c12 [Compound 133, 8-[Methyl-(tetrahydro-pyran-4-yl)-sulfamoyl]-4-oxo-4,5-dihydro-3H-pyrrolo[2,3-c]quinoline-1-propyl carboxylate]",< 0.1 µM
14,"C#CCN(C)S(=O)(=O)c1ccc2[nH]c(=O)c3[nH]cc(C(=O)OCCC)c3c2c1 [Compound 134, 8-(Methyl-prop-2-ynyl-sulfamoyl)-4-oxo-4,5-dihydro-3H-pyrrolo[2,3-c]quinoline-1-propyl carboxylate]",0.1 to 1 µM
15,"CCCOC(=O)c1c[nH]c2c(=O)[nH]c3ccc(S(=O)(=O)N(C)CCSC)cc3c12 [Compound 135, 8-[Methyl-(2-methylsulfanyl-ethyl)-sulfamoyl]-4-oxo-4,5-dihydro-3H-pyrrolo[2,3-c]quinoline-1-propyl carboxylate]",0.1 to 1 µM
16,"CCCOC(=O)c1c[nH]c2c(=O)[nH]c3ccc(S(=O)(=O)N(C)CCN(C)C)cc3c12 [Compound 136, 8-[(2-Dimethylamino-ethyl)-methyl-sulfamoyl]-4-oxo-4,5-dihydro-3H-pyrrolo[2,3-c]quinoline-1-propyl carboxylate]",< 0.1 µM
